Measurements reported in ChEMBL document CHEMBL1833928, “Metabolism evaluation of the anticancer candidate AC04 by biomimetic oxidative model and rat liver microsomes” (Eur J Med Chem, 2011).

Legend:
Liver microsomes = assay: Drug metabolism in Wistar rat liver microsomes assessed as 1-oxo-AC04 after 60 mins by LC-MS/MS analysis; format: ADME, Microsome; details: 1 h
Plasma = assay: Drug metabolism in Wistar rat plasma assessed as 1-oxo-AC04 at 1.5 mg/kg, iv administered as single dose after 120 hrs by LC-MS/MS analysis; format: ADME, organism-based; set-up: dose 1.5 mg/kg, route intravenous; details: in vivo
CCRF S-180 = assay: Antitumor activity against mouse S180 cells xenografted in mouse assessed as reduction of tumor weight at 100 umol/kg/day, ip administered after 48 hrs of tumor inoculation qd for 8 days; format: functional; set-up: scale not given: the % may be the effect or the level left

- Drug metabolism (Liver microsomes): Active
- Drug metabolism (Plasma): Active
Structure (SMILES): Cc1ccc(CN2C(=O)S/C(=C\c3c4ccccc4nc4ccccc34)C2=O)cc1
- Activity (CCRF S-180): 85%
